Data taken from publication PMC6299220 (mBio, 2018).
Converted amounts (≈) assume the structure as drawn. Where two headings read alike, the source gives them in different places.

Legend:
M. tuberculosis H37Rv = test: microbe, parasite or virus in culture; type: cell-based, Mycobacterium tuberculosis
in vitro [1] = conditions: African green monkey
physchem = conditions: pH 7.4, aqueous buffer, kinetic from dmso stock
[2] = mouse, microsomes
in vitro [3] = conditions: mouse, microsomes
[4] = Mycobacterium tuberculosis, H37RV
[5] = MLM stability t1/2 without NADPH

Structure (SMILES) | MIC (M. tuberculosis H37Rv; [4]) | further results
CCCOC(=O)Nc1ccc2cnn(C)c2c1 [5d-2, n-propyl (1-methyl-1H-indazol-6-yl)carbamate] | > 100 µM | CC50 (in vitro [1]): 6.7 µM
Cn1ncc2ccc(NS(=O)(=O)C3CCC(C(F)(F)F)CC3)cc21 (centres unmarked) [5a-27, N-(1-Methyl-1H-indazol-6-yl)-4-(trifluoromethyl)cyclohexane-1-sulfonamide] | > 100 µM | 
CC(C)CCCS(=O)(=O)Nc1ccc2cnn(C)c2c1 [5a-19, 4-Methyl-N-(1-methyl-1H-indazol-6-yl)pentane-1-sulfonamide] | > 100 µM | 
CCCCS(=O)(=O)N(C)c1ccc2cnn(C)c2c1 [5e, N-Methyl-N-(1-methyl-1H-indazol-6-yl)butane-1-sulfonamide] | > 100 µM | 
Cn1ncc2ccc(NS(=O)(=O)C3CCC3)cc21 [5a-24, N-(1-Methyl-1H-indazol-6-yl)cyclobutanesulfonamide] | > 100 µM | 
COc1c(N2C[C@@H]3CCCN[C@@H]3C2)c(F)cc2c(=O)c(C(=O)O)cn(C3CC3)c12 [Moxi, moxifloxacin] | 0.03 µM (≈ 0.012 µg/mL) | 
CCCCC(=O)Nc1ccc2cnn(C)c2c1 [5c-2, N-(1-Methyl-1H-indazol-6-yl)pentanamide] | > 100 µM | solubility kinetic (physchem): > 500 µM; MLM stability clint [2]: 1,040 μl/mi/mg protein; half-life (in vitro [3]; MLM stability t1/2): 0.668 min; half-life (in vitro [3]; [5]): 13.1 min
CC(C)S(=O)(=O)Nc1ccc2cnn(C)c2c1 [5a-11, N-(1-Methyl-1H-indazol-6-yl)propane-2-sulfonamide] | > 100 µM | 
Cn1ncc2ccc(NS(=O)(=O)C3CCCCC3)cc21 [5a-26, N-(1-Methyl-1H-indazol-6-yl)cyclohexanesulfonamide] | 12.5 µM (≈ 3.67 µg/mL) | 
Cn1ncc2ccc(NS(=O)(=O)C3CC3)cc21 [5a-23, N-(1-Methyl-1H-indazol-6-yl)cyclopropanesulfonamide] | > 100 µM | 
CC(C)=CCC/C(C)=C/CNCCNC1C2CC3CC(C2)CC1C3 (centres unmarked) [SQ109] | 0.8 µM (≈ 0.264 µg/mL) | 
CCCCNC(=O)Nc1ccc2cnn(C)c2c1 [5b-2, 1-Butyl-3-(1-methyl-1H-indazol-6-yl)urea] | > 100 µM | 
Cn1ncc2ccc(NS(=O)(=O)CCCCC#N)cc21 [5a-14, 4-Cyano-N-(1-methyl-1H-indazol-6-yl)butane-1-sulfonamide] | 3.1 µM (≈ 0.906 µg/mL) | CC50 (in vitro [1]): > 100 µM
CCCCS(=O)(=O)Nc1ccc2cnn(CCC)c2c1 [5a-4, N-(1-Propyl-1H-indazol-6-yl)butane-1-sulfonamide] | > 100 µM | solubility kinetic (physchem): 130 µM (≈ 38.4 µg/mL); MLM stability clint [2]: 921 μl/mi/mg protein; half-life (in vitro [3]; MLM stability t1/2): 0.753 min; half-life (in vitro [3]; [5]): > 3060 min
CCC(=O)Nc1ccc2cnn(C)c2c1 [5c-1, N-(1-methyl-1H-indazol-6-yl)propionamide] | > 100 µM | solubility kinetic (physchem): 472 µM (≈ 95.9 µg/mL); MLM stability clint [2]: 536 μl/mi/mg protein; half-life (in vitro [3]; MLM stability t1/2): 1.29 min
Cn1ncc2ccc(NS(=O)(=O)CC3CCCCC3)cc21 [5a-29, 1-Cyclohexyl-N-(1-methyl-1H-indazol-6-yl)methanesulfonamide] | > 100 µM | 
Cn1ncc2ccc(NS(=O)(=O)N3CCCCC3)cc21 [5a-28, N-(1-Methyl-1H-indazol-6-yl)piperidine-1-sulfonamide] | > 100 µM | 
COCCC(C)CCS(=O)(=O)Nc1ccc2cnn(C)c2c1 (centres unmarked) [5a-16, 5-Methoxy-3-methyl-N-(1-methyl-1H-indazol-6-yl)pentane-1-sulfonamide] | > 100 µM | 
CCCCS(=O)(=O)Nc1ccc2cnn(C(C)C)c2c1 [5a-5, N-(1-Isoproply-1H-indazol-6-yl)butane-1-sulfonamide] | > 100 µM | solubility kinetic (physchem): > 500 µM; MLM stability clint [2]: 789 μl/mi/mg protein; half-life (in vitro [3]; MLM stability t1/2): 0.878 min; half-life (in vitro [3]; [5]): > 3060 min
COCCCCS(=O)(=O)Nc1ccc2cnn(C)c2c1 [5a-15, 4-Methoxy-N-(1-methyl-1H-indazol-6-yl)butane-1-sulfonamide] | > 100 µM | MIC (M. tuberculosis H37Rv): >100 µM; CC50 (in vitro [1]): > 100 µM

Structure (SMILES) | MIC (M. tuberculosis H37Rv; [4]) | further results
CCCC(C)S(=O)(=O)Nc1ccc2cnn(C)c2c1 (centres unmarked) [5a-18, N-(1-Methyl-1H-indazol-6-yl)pentane-2-sulfonamide] | > 100 µM | CC50 (in vitro [1]): > 100 µM
[2H]C([2H])([2H])n1ncc2ccc(NS(=O)(=O)CCCCC)cc21 [5a-31, N-(1-(Methyl-d3)-1H-indazol-6-yl)pentane-1-sulfonamide] | 0.2 µM (≈ 0.0569 µg/mL) | improvement in MIC/whole-cell activity over DG167 (M. tuberculosis H37Rv): 2 fold; CC50 (in vitro [1]): > 100 µM
CCCC(CC)S(=O)(=O)Nc1ccc2cnn(C)c2c1 (centres unmarked) [5a-17, N-(1-Methyl-1H-indazol-6-yl)hexane-3-sulfonamide] | > 100 µM | CC50 (in vitro [1]): > 100 µM
CCc1cc(C(N)=S)ccn1 [ETH, ethionamide] | 25 µM (≈ 4.16 µg/mL) | 
CCCCCS(=O)(=O)Nc1ccc2cnn(C)c2c1 [5a-12, N-(1-Methyl-1H-indazol-6-yl)pentane-1-sulfonamide] | 0.2 µM (≈ 0.0563 µg/mL) | improvement in MIC/whole-cell activity over DG167 (M. tuberculosis H37Rv): 2 fold; CC50 (in vitro [1]): > 100 µM
CO[C@H]1/C=C/O[C@@]2(C)Oc3c(C)c(O)c4c(O)c(c(/C=N/N5CCN(C)CC5)c(O)c4c3C2=O)NC(=O)/C(C)=C\C=C\[C@H](C)[C@H](O)[C@@H](C)[C@@H](O)[C@@H](C)[C@H](OC(C)=O)[C@@H]1C [RIF, rifampin] | 0.001 µM (≈ 0.000823 µg/mL) | 
[2H]C([2H])([2H])n1ncc2ccc(NS(=O)(=O)CCCCOC)cc21 [5a-32, 4-Methoxy-N-(1-(methyl-d3)-1H-indazol-6-yl)butane-1-sulfonamide] | > 100 µM | CC50 (in vitro [1]): > 100 µM
Cn1ncc2ccc(NS(=O)(=O)Cc3ccccc3)cc21 [5a-21, N-(1-Methyl-1H-indazol-6-yl)-1-phenylmethanesulfonamide] | > 100 µM | 
Cc1ccc(S(=O)(=O)Nc2ccc3cnn(C)c3c2)cc1 [5a-20, 4-Methyl-N-(1-methyl-1H-indazol-6-yl)benzenesulfonamide] | 50 µM (≈ 15.1 µg/mL) | 
COc1nc2ccc(Br)cc2cc1[C@@H](c1ccccc1)[C@@](O)(CCN(C)C)c1cccc2ccccc12 [BDQ, bedaquiline] | 1 µM (≈ 0.556 µg/mL) | 
Cn1ncc2ccc(NS(=O)(=O)CCc3ccccc3)cc21 [5a-22, N-(1-Methyl-1H-indazol-6-yl)-2-phenylethane-1-sulfonamide] | > 100 µM | CC50 (in vitro [1]): 19.8 µM
O=[N+]([O-])c1cn2c(n1)OC[C@@H](OCc1ccc(OC(F)(F)F)cc1)C2 [PA824] | 0.1 µM (≈ 0.0359 µg/mL) | 
CCCCOC(=O)Nc1ccc2cnn(C)c2c1 [5d-3, Butyl (1-methyl-1H-indazol-6-yl)carbamate] | > 100 µM | CC50 (in vitro [1]): 25 µM
CCS(=O)(=O)Nc1ccc2cnn(C)c2c1 [5a-9, N-(1-Methyl-1H-indazol-6-yl)ethanesulfonamide] | > 100 µM | 
CCCCCCS(=O)(=O)Nc1ccc2cnn(C)c2c1 [5a-13, N-(1-Methyl-1H-indazol-6-yl)hexane-1-sulfonamide] | > 100 µM | CC50 (in vitro [1]): > 170 µM
Cn1ncc2ccc(NS(=O)(=O)C3CCCC3)cc21 [5a-25, N-(1-Methyl-1H-indazol-6-yl)cyclopentanesulfonamide] | > 100 µM | 
Cn1ncc2ccc(NS(C)(=O)=O)cc21 [5a-8, N-(1-Methyl-1H-indazol-6-yl)methanesulfonamide] | > 100 µM | 
CCCS(=O)(=O)Nc1ccc2cnn(C)c2c1 [5a-10, N-(1-Methyl-1H-indazol-6-yl)propane-1-sulfonamide] | 12.5 µM (≈ 3.17 µg/mL) | 
CC[C@@H](CO)NCCN[C@@H](CC)CO [EMB, ethambutol] | 0.78 µM (≈ 0.159 µg/mL) | 
